From patent US20070197577A1 (priority 2003, published 2007)

What was measured:
anthrax = settings: monkey, in vivo; cited from earlier work

| Molecule | melting point [°C] | monkeys that survived a lethal aerosol challenge (anthrax) |
| --- | --- | --- |
| O=C(O)c1cccc(N(CCc2ccccc2)c2nnc(-c3cccc(Oc4cccc(C(F)(F)F)c4)c3)s2)c1 | 92 to 93 |  |
| O=C(O)c1cn(C2CC2)c2cc(N3CCNCC3)c(F)cc2c1=O [ciprofloxacin] |  | 8 of 9 |
| CC(C)CC(NCC(=O)NO)C(=O)NC(Cc1ccc2ccccc2c1)C(=O)NC(C)C(N)=O (stereo not shown) | 205 to 212 |  |
| penicillin |  | 7 of 10 |
